Assay results published in patent US7572806B2, “PPAR active compounds” (Plexxikon, Inc., priority 2003, dated 2009).
Where two headings read alike, the source gives them in different places.

What was measured:
PPARγ = target: T1, PPARγ (Homo sapiens, UniProt P37231); assay: Alpha screen assay, agonist mode, ligand dependent interaction of PPAR with coactivator peptide; assay type: biochemical; conditions: for EC50: Alpha screen
T1 sequence (P37231 1-505): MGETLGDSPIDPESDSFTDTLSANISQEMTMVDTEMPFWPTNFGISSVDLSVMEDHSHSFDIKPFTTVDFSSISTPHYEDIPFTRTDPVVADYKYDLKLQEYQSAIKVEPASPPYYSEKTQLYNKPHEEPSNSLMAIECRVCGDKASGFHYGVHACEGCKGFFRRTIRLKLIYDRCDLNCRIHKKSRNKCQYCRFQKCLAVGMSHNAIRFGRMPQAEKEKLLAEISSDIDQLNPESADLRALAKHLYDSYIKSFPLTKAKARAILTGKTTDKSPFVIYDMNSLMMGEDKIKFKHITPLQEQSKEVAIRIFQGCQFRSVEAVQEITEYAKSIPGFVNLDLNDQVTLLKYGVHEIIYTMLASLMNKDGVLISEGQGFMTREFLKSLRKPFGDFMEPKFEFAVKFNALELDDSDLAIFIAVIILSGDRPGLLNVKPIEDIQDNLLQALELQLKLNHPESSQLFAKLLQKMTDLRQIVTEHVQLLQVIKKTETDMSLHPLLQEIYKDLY
Experimental: (§1) The homogenous Alpha screen assay was used in the agonist mode to determine the ligand dependent interaction of the PPARs (α,δ,γ) with the coactivator peptides (SRC or DRIP205). Briefly 15 ul of the reaction mix (50 mM Tris pH 7.5, 50 mM Kcl, 0.05% Tween 20, 1 mM DTT, 0.1% BSA and 10 nM-200 nMPPAR and […] coactivator peptide) was added to the test compound (1 ul compound in DMSO) and preincubated for 1-6 hr. Next, 5 ul of the Alpha screen beads were added. The reactions were incubated for 2 hrs before taking the reading in the Fusion alpha instrument. In the antagonist mode compounds were assayed for inhibition of the co-activator binding signal caused by the control agonists for each receptor.
(§2) The controls agonists used were WY-14643(PPAR(α), farglitazar (PPAR(γ) and bezafibrate (PPAR(δ).
(§3) Using the assay above, compounds from Table 1 were analyzed for activity. The data reported in Table 2 was generated via the alpha screen assay and expressed in μMol/L. The data points from the Fusion alpha instrument were transferred to Assay Explorer® (MDL) to generate a curve and calculate the inflection point of the curve as EC50.

PPARα = target: T2, PPARα (Homo sapiens, UniProt Q07869); assay: as above; assay type: biochemical
T2 sequence (Q07869 1-468): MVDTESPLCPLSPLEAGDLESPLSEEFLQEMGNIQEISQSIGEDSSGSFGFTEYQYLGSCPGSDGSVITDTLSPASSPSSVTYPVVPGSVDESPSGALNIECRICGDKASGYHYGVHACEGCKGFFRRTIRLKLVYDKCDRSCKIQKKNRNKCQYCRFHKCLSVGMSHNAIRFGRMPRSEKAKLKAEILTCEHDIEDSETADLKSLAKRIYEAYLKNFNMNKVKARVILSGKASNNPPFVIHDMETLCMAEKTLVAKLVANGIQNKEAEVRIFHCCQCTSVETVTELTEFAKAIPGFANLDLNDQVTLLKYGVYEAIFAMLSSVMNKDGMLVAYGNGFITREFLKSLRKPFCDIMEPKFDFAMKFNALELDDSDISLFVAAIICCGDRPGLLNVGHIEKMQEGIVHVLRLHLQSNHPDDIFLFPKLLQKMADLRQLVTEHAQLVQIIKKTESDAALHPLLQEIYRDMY
Experimental: as §1, §2, §3

PPARδ [1] = target: T3, PPARδ (Homo sapiens, UniProt Q03181); assay: as above; assay type: biochemical
T3 sequence (Q03181 1-441): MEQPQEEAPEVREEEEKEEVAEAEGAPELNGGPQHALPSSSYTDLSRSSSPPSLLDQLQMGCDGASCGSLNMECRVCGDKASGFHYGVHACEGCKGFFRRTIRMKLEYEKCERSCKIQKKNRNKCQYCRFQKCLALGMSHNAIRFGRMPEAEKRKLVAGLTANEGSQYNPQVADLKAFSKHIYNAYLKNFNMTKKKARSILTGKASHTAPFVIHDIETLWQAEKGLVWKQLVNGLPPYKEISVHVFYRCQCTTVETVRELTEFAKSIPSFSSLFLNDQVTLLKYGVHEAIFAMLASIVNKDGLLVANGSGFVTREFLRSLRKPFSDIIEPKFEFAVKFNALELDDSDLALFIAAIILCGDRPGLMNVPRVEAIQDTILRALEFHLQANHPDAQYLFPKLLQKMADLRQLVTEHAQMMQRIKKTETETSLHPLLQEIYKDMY
Experimental: as §1, §2, §3

PPARδ [2] = target: T3, PPARδ; conditions: cited from earlier work
murine PPARα = target: T4, murine PPARα (Mus musculus, UniProt P23204); conditions: cited from earlier work
T4 sequence (P23204 1-468): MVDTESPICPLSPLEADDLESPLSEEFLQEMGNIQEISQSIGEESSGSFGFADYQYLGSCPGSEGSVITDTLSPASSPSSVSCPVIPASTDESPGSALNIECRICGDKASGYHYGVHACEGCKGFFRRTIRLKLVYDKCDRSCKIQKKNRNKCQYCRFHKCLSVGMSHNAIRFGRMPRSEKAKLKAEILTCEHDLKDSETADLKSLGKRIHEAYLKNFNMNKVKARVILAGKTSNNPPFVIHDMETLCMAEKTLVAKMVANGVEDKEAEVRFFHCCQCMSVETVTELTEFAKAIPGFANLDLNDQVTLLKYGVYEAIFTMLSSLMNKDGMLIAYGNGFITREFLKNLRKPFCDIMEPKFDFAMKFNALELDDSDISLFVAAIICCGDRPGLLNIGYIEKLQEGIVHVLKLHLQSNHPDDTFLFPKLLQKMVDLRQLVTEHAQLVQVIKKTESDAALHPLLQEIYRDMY

PPARs (α,δ,γ) = assay: Alpha screen assay, pan-activity across the PPARs; assay type: biochemical, human; conditions: PPARα, PPARδ and PPARγ
Experimental: as §1, §2, §3

[3] = large prospective trial; cited from earlier work
[4] = agonist mode, read-out: PPARγ Agonist
[5] = agonist mode, read-out: PPARα agonist
[6] = agonist mode, read-out: PPARδ Agonist

Row | Structure (SMILES) | EC50 (PPARγ; [4]) [µM] | EC50 (PPARα; [5]) [µM] | EC50 (PPARδ [1]; [6]) [µM] | other results
1 | CCCCc1ccc(S(=O)(=O)n2cc(CCC(=O)O)c3cc(OC)ccc32)cc1 [compound 77, 3-[1-(4-Butyl-benzenesulfonyl)-5-methoxy-1H-indol-3-yl]-propionic acid] | ≤ 10 | ≤ 10 | ≤ 10 | 
2 | COc1ccc2c(c1)c(CCC(=O)O)cn2C(=S)Nc1ccccc1 [compound 75, 3-(5-Methoxy-1-phenylthiocarbamoyl-1H-indol-3-yl)-propionic acid] | > 10 | > 10 | > 10 | 
3 | CCCc1c(OCCCOc2ccc(OCC(=O)O)cc2)ccc(C(C)=O)c1O [L-165041] |  |  |  | agonist selectivity for PPARδ over PPARγ (PPARδ [2]): approximately 30 fold; activity on murine PPARα (murine PPARα): inactive
4 | CCCCOc1ccc(S(=O)(=O)n2cc(CCC(=O)O)c3cc(OC)ccc32)cc1 [compound 43, 3-[1-(4-Butoxy-benzenesulfonyl)-5-methoxy-1H-indol-3-yl]-propionic acid] | ≤ 10 | ≤ 10 | ≤ 10 | pan-activity (PPARs (α,δ,γ)): low micromolar or even sub-micromolar
5 | COc1ccc2c(c1)c(CCC(=O)O)cn2S(=O)(=O)c1ccc(Cl)cc1 [compound 49, 3-[1-(4-Chloro-benzenesulfonyl)-5-methoxy-1H-indol-3-yl]-propionic acid] | ≤ 10 | ≤ 10 | ≤ 10 | 
6 | O=C(O)CCc1cn(S(=O)(=O)c2ccccc2)c2ccc(-c3ccsc3)cc12 [compound 92, 3-(Benzenesulfonyl-5-thiophen-3-yl-1H-indol-3-yl)-propionic acid] | ≤ 10 | ≤ 10 | > 10 | 
7 | COc1ccc2c(c1)c(CCC(=O)O)cn2S(=O)(=O)c1ccccc1 [compound 29, 3-(1-Benzenesulfonyl-5-methoxy-1H-indol-3-yl)-propionic acid] | ≤ 10 | ≤ 10 | ≤ 10 | pan-activity (PPARs (α,δ,γ)): low micromolar or even sub-micromolar
8 | CCOc1ccc2c(c1)c(CCC(=O)O)cn2S(=O)(=O)c1ccccc1 [compound 82, 3-(1-Benzenesulfonyl-5-ethoxy-1H-indol-3-yl)-propionic acid] | ≤ 10 | ≤ 10 | ≤ 10 | 
9 | COc1ccc2c(c1)c(CCC(=O)O)cn2C(=O)c1ccccc1 [compound 81, 3-(1-Benzoyl-5-methoxy-1H-indol-3-yl)-propionic acid] | > 10 | ≤ 10 | > 10 | 
10 | COc1ccc2c(c1)c(CCC(=O)O)cn2Cc1ccccc1 [compound 71, 3-(1-Benzyl-5-methoxy-1H-indol-3-yl)-propionic acid] | > 10 | ≤ 10 | > 10 | 
11 | CCc1ccc2c(c1)c(CCC(=O)O)cn2S(=O)(=O)c1ccccc1 [compound 6, 3-(1-Benzenesulfonyl-5-ethyl-1H-indol-3-yl)-propionic acid] | ≤ 10 | > 10 | > 10 | EC50 (PPARγ; read-out: activity on PPARγ): ~8 µM; selectivity (PPARγ; PPARγ versus PPARα and δ): selective for PPARγ; EC50 (PPARα; read-out: activity on PPARα): ≥ 200 µM; EC50 (PPARδ [1]; read-out: activity on PPARδ): ≥ 200 µM
12 | O=C(O)CCc1nn(S(=O)(=O)c2ccccc2)c2ccccc12 [compound 39, 3-(1-Benzenesulfonyl-1H-indazol-3-yl)-propionic acid] | > 10 | > 10 | > 10 | 
13 | COc1ccc2c(c1)c(CCC(=O)O)cn2C(=O)Nc1ccccc1 [compound 85, 3-(5-Methoxy-1-phenylcarbamoyl-1H-indol-3-yl)-propionic acid] | > 10 | > 10 | > 10 | 
14 | COc1ccc2c(c1)c(CCC(=O)O)cn2S(=O)(=O)c1ccc(Cl)c(Cl)c1 [compound 53, 3-[1-(3,4-Dichloro-benzenesulfonyl)-5-methoxy-1H-indol-3-yl]-propionic acid] | ≤ 10 | ≤ 10 | ≤ 10 | pan-activity (PPARs (α,δ,γ)): low micromolar or even sub-micromolar
15 | O=C(O)CCc1cn(S(=O)(=O)c2ccccc2)c2ccccc12 [compound 97, 3-(1-Benzenesulfonyl-1H-indol-3-yl)-propionic acid] | > 10 | > 10 | > 10 | 
16 | COc1ccc2c(c1)c(CCC(=O)O)cn2S(=O)(=O)c1cccc(OC(F)(F)F)c1 [compound 79, 3-[5-Methoxy-1-(3-trifluoromethoxy-benzenesulfonyl)-1H-indol-3-yl]-propionic acid] | ≤ 10 | ≤ 10 | ≤ 10 | 
17 | Cc1ccc(C)c(OCCCC(C)(C)C(=O)O)c1 [gemfibrozil] |  |  |  | reduction in cardiovascular events or death [3]: 22%
